# From patent US20150197497A1, “SELECTIVE INHIBITORS OF HISTONE DEACETYLASE ISOFORM 6 AND METHODS THEREOF” (DANA-FARBER CANCER INSTITUTE, INC., priority 2011, published 2015)
# Columns and labels:
# HDAC4 = biological target: T1, HDAC4 (Homo sapiens, UniProt P56524); experiment: In vitro HDAC enzyme inhibition assay, HDAC4; assay type: biochemical; settings: for HDAC4/HDAC6 in vitro selectivity: ratio of IC50 for HDAC4 relative to that of HDAC6; for IC50: recombinant full-length HDAC4, substrate MAZ1675 10 μM; for selectivity toward HDAC6 compared to HDAC4 (in words): tested in vitro
# T1 construct: Recombinant, full-length HDAC protein (BPS Biosciences) was incubated with fluorophore conjugated substrate; purchased BPS Biosciences
# Description: (§1) In vitro Histone Deacetylase enzyme assays were performed using Class I (isoforms: HDAC1, HDAC2, HDAC3 and HDAC8), class IIa (isoforms: HDAC4, HDAC5, HDAC7 and HDAC9) and class IIb (isoform HDAC6).
# (§2) HDAC activities were determined in vitro with an optimized homogenous assay performed in a 384-well plate. Recombinant, full-length HDAC protein (BPS Biosciences) was incubated with fluorophore conjugated substrate, MAZ1600 and MAZ1675, at Km=[S]. […] Reactions were performed in assay buffer (50 mM HEPES, 100 mM KCl, 0.001% Tween-20, 0.05% BSA, 200 μM tris(2-carboxyethyl)phosphine (TCEP), pH 7.4) and followed for fluorogenic release of 7-amino-4-methylcoumarin from substrate upon deacetylase and trypsin enzymatic activity. Fluorescence measurements were obtained every five minutes using a multilabel plate reader and plate-stacker (Envision; Perkin-Elmer). Each plate was analyzed by plate repeat, and the first derivative within the linear range was imported into analytical software (Spotfire DecisionSite and GraphPad Prism). Replicate experimental data from incubations with inhibitor were normalized to controls.
# HDAC6 = biological target: T2, HDAC6 (Homo sapiens, UniProt Q9UBN7); experiment: In vitro HDAC enzyme inhibition assay, HDAC6; assay type: biochemical; settings: recombinant full-length HDAC6, substrate MAZ1600 9 μM
# T2 construct: Recombinant, full-length HDAC protein (BPS Biosciences) was incubated with fluorophore conjugated substrate; purchased BPS Biosciences
# T2 sequence (Q9UBN7 1-1215): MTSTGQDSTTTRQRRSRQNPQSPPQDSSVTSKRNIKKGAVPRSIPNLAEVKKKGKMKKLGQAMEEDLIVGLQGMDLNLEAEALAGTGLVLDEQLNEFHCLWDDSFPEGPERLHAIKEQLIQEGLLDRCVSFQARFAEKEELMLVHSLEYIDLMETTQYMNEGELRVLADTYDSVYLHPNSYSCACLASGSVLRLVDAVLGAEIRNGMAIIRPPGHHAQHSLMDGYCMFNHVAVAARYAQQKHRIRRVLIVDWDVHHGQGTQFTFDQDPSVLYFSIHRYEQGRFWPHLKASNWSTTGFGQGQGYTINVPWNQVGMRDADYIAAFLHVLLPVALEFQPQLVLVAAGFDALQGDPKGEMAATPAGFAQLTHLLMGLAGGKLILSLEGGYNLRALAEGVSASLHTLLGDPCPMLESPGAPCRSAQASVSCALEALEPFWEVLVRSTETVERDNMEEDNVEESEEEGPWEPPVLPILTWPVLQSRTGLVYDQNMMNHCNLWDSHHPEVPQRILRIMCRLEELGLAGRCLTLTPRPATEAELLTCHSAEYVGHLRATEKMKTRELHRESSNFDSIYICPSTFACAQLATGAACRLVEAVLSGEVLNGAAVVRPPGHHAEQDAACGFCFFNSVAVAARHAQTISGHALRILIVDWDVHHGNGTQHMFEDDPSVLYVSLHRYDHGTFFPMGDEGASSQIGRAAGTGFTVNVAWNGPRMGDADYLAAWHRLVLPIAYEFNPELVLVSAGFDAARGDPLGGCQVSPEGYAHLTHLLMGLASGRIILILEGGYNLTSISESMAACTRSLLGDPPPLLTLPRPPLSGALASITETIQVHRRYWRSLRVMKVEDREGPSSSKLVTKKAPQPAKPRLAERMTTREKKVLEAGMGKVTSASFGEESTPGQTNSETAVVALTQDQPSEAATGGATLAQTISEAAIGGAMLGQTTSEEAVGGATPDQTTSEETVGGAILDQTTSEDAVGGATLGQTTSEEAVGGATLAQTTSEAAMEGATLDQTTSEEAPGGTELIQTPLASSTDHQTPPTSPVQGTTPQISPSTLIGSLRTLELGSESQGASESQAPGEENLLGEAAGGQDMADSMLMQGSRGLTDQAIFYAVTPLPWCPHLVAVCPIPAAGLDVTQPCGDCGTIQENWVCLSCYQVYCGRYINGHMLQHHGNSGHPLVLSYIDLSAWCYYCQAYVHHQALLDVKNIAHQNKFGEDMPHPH
# Description: as §1, §2
# HDAC7 = biological target: T3, HDAC7 (Homo sapiens, UniProt Q8WUI4); experiment: In vitro HDAC enzyme inhibition assay, HDAC7; assay type: biochemical; settings: for HDAC7/HDAC6 in vitro selectivity: ratio of IC50 for HDAC7 relative to that of HDAC6; for IC50: recombinant full-length HDAC7, substrate MAZ1675 22 μM; for selectivity toward HDAC6 compared to HDAC7 (in words): tested in vitro
# T3 construct: Recombinant, full-length HDAC protein (BPS Biosciences) was incubated with fluorophore conjugated substrate; purchased BPS Biosciences
# T3 sequence (Q8WUI4 1-952): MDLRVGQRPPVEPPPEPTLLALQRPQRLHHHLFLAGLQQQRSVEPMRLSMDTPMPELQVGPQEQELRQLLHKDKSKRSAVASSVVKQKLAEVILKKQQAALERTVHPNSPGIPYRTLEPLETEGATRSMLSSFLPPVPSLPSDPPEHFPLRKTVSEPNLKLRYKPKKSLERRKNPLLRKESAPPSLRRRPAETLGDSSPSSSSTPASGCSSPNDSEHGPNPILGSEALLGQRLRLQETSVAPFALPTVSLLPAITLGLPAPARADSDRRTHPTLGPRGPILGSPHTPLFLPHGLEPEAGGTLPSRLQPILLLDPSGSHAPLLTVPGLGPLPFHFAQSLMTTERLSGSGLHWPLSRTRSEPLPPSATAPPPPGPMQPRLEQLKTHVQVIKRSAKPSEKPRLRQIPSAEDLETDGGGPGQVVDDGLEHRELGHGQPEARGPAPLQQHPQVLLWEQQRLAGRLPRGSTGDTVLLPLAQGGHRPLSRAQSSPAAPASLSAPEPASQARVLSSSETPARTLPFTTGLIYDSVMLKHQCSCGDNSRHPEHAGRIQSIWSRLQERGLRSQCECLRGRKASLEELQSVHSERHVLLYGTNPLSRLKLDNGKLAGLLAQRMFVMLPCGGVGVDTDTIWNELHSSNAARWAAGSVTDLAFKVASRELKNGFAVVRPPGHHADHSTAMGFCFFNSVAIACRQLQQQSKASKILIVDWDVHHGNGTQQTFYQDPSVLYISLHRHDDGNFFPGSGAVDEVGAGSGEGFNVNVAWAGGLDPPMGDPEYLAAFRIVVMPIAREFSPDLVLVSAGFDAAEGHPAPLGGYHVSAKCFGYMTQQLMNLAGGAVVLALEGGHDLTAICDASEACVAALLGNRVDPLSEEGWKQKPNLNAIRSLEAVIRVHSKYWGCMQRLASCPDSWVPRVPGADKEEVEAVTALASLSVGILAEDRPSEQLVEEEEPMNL
# Description: as §1, §2
# HDAC2 = biological target: T4, HDAC2 (Homo sapiens, UniProt Q92769); experiment: In vitro HDAC enzyme inhibition assay, HDAC2; assay type: biochemical; settings: for HDAC2/HDAC6 in vitro selectivity: ratio of IC50 for HDAC2 relative to that of HDAC6; for IC50: recombinant full-length HDAC2, substrate MAZ1600 22 μM
# T4 construct: Recombinant, full-length HDAC protein (BPS Biosciences) was incubated with fluorophore conjugated substrate; purchased BPS Biosciences
# Description: as §1, §2
# acetylated histones = experiment: High-content image analysis of induction of acetylated histones in A549 cells; settings: for EC50: Homo sapiens, A549, 8 h, read-out: EC50 for half-maximal induction of acetylated histones (AcHistone)
# T4 sequence (Q92769 whole entry): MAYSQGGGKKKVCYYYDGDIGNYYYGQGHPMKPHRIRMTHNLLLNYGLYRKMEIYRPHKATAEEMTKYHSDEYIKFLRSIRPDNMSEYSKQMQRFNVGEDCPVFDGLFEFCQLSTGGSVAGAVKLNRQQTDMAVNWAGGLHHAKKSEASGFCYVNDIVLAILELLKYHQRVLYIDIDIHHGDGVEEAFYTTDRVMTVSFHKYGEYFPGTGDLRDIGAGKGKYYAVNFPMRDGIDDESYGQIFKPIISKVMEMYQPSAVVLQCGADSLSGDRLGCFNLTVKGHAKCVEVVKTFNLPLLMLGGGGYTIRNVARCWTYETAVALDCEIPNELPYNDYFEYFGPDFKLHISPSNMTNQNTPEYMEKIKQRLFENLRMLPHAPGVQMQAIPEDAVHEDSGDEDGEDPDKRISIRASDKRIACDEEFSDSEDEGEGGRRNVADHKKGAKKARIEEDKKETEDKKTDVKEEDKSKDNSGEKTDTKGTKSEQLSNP
# T1 sequence (P56524 whole entry): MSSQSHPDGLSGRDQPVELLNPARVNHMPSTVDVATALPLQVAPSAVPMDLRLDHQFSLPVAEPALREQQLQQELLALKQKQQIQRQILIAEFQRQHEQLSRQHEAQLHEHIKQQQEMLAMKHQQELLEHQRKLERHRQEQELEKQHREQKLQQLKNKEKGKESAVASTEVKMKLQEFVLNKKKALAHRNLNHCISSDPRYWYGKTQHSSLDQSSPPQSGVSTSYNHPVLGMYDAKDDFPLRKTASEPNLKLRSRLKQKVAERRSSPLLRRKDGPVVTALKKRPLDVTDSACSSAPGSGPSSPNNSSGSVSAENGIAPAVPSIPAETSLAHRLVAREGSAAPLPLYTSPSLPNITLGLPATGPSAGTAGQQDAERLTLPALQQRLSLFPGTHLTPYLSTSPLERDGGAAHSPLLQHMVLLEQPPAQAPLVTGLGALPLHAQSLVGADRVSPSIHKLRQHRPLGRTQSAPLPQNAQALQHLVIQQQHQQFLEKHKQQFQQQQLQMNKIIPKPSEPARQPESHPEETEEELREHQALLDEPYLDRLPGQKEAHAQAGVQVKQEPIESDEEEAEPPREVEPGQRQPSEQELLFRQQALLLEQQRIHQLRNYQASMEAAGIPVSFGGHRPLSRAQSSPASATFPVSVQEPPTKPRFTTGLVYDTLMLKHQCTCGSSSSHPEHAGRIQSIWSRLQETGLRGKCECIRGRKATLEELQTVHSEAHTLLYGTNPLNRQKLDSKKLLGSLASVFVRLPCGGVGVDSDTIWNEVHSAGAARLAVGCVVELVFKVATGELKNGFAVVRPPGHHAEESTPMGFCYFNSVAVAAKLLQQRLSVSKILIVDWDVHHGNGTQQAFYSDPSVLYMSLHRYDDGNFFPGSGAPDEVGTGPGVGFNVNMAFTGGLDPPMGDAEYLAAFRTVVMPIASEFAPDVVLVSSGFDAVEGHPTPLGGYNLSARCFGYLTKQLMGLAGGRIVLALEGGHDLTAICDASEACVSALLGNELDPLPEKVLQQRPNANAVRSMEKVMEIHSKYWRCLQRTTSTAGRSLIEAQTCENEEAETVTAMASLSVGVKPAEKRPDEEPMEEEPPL
HDAC4/HDAC6 in vitro selectivity (HDAC4),IC50 (HDAC4),IC50 (HDAC6),HDAC7/HDAC6 in vitro selectivity (HDAC7),IC50 (HDAC7),HDAC2/HDAC6 in vitro selectivity (HDAC2),IC50 (HDAC2),EC50 (acetylated histones),Compound,selectivity toward HDAC6 compared to HDAC4 (in words) (HDAC4),selectivity toward HDAC6 compared to HDAC7 (in words) (HDAC7),"levels of acetylated histone, dose response (in words) (acetylated histones; A549 cells, FIG. 11)"
153386,2230 nM,0.0145 nM,30509,443 nM,6974,101 nM,263 nM,"O=C(NO)c1ccc(Cn2c(=O)[nH]c3ccccc32)cc1 [B1, N-hydroxy-4-((2-oxo-2,3-dihydro-1H-benzo[d]imidazol-1-yl)methyl)benzamide]","exceptionally high selectivity (Inhibitors with in vitro selectivity values for HDAC6 of at least 30,000 are considered to have exceptionally high selectivity toward HDAC6)","exceptionally high selectivity (Inhibitors with in vitro selectivity values for HDAC6 of at least 30,000 are considered to have exceptionally high selectivity toward HDAC6)",
412836,1180 nM,0.00286 nM,55678,159 nM,4997,14.3 nM,229 nM,"Cc1ccc2c(c1)[nH]c(=O)n2Cc1ccc(C(=O)NO)cc1 [B2, N-hydroxy-4-((5-methyl-2-oxo-2,3-dihydro-1H-benzo[d]imidazol-1-yl)methyl)benzamide]","exceptionally high selectivity (Inhibitors with in vitro selectivity values for HDAC6 of at least 30,000 are considered to have exceptionally high selectivity toward HDAC6)","exceptionally high selectivity (Inhibitors with in vitro selectivity values for HDAC6 of at least 30,000 are considered to have exceptionally high selectivity toward HDAC6)",
79927,1720 nM,0.0216 nM,17021,367 nM,3002,64.7 nM,1480 nM,"O=C(NO)c1ccc(Cn2c(=O)[nH]c3cc(F)ccc32)cc1 [B3, 4-((5-fluoro-2-oxo-2,3-dihydro-1H-benzo[d]imidazol-1-yl)methyl)N-hydroxybenzamide]","exceptionally high selectivity (Inhibitors with in vitro selectivity values for HDAC6 of at least 30,000 are considered to have exceptionally high selectivity toward HDAC6)",,
25301,639 nM,0.0253 nM,3153,79.6 nM,210,5.3 nM,420 nM,"O=C(NO)c1ccc(Cn2c(=O)[nH]c3cc(Cl)ccc32)cc1 [B4, 4-((5-chloro-2-oxo-2,3-dihydro-1H-benzo[d]imidazol-1-yl)methyl)-N-hydroxybenzamide]",,,
57687,1180 nM,0.0205 nM,9297,190 nM,444,9.09 nM,846 nM,"O=C(NO)c1ccc(Cn2c(=O)[nH]c3cc(Br)ccc32)cc1 [B5, 4-((5-bromo-2-oxo-2,3-dihydro-1H-benzo[d]imidazol-1-yl)methyl)-N-hydroxybenzamide]","exceptionally high selectivity (Inhibitors with in vitro selectivity values for HDAC6 of at least 30,000 are considered to have exceptionally high selectivity toward HDAC6)",,
229041,1420 nM,0.00621 nM,38222,237 nM,1754,10.9 nM,~629 nM,"O=C(NO)c1ccc(Cn2c(=O)[nH]c3cc(C(F)(F)F)ccc32)cc1 [B6, N-hydroxy-4-((2-oxo-5-(trifluoromethyl)-2,3-dihydro-1H-benzo[d]imidazol-1-yl)methyl)benzamide]","exceptionally high selectivity (Inhibitors with in vitro selectivity values for HDAC6 of at least 30,000 are considered to have exceptionally high selectivity toward HDAC6)",,absence of the dose-dependent response
60006,1540 nM,0.0257 nM,15934,410 nM,991,25.5 nM,1540 nM,"COc1ccc2c(c1)[nH]c(=O)n2Cc1ccc(C(=O)NO)cc1 [B7, N-hydroxy-4-((5-methoxy-2-oxo-2,3-dihydro-1H-benzo[d]imidazol-1-yl)methyl)benzamide]","exceptionally high selectivity (Inhibitors with in vitro selectivity values for HDAC6 of at least 30,000 are considered to have exceptionally high selectivity toward HDAC6)",,
66860,1070 nM,0.016 nM,9286,148 nM,4884,78.1 nM,7140 nM,"O=C(NO)c1ccc(Cn2nnc3ccccc32)cc1 [C1, 4-((1H-benzo[d][1,2,3]triazol-1-yl)methyl)-N-hydroxybenzamide]","exceptionally high selectivity (Inhibitors with in vitro selectivity values for HDAC6 of at least 30,000 are considered to have exceptionally high selectivity toward HDAC6)",,
